In paper PMC4627342 (Oncotarget, 2015):
Where two headings read alike, the source gives them in different places.

Assays:
in vivo = conditions: both, NIH, mouse, iv
Description: Blood was collected from the retro-orbital plexus at designated time points and they were kept in cold heparin coated glass tubes. The blood from 1 male and 1 female was pooled and plasma was isolated and stored at −80°C until analysis. […] Pharmacokinetic parameters was determined from the concentration-time data by non compartment model using the 3P97 software (Practical Pharmacokinetics Software, Beijing, China).

liver = test: Swiss mice hepatotoxicity model; conditions: after 2 weeks, liver tissues
[1] = Adverse events in the hepatobiliary system in patients with HER2-overexpressing metastatic breast cancer; conditions: text count, cohort of 39 patients
HepG2 cells [2] = test: MTT cytotoxicity of doxorubicin with lapatinib, parental cells; format: cell-based, human; conditions: lapatinib added 1 h before doxorubicin
Description: (§1) We collected the cells and seeded them at a density of 3.0 × 10^3 cells per well in 96-well plates. […] After 68 h, MTT (5 mg/mL, 20 μL) was added into each well and cultured for another 4 h. Then the medium was discarded and each well was added with 120 μL DMSO. Finally, optical density was measured at 540 nm with background subtraction at 670 nm by Model 550 Microplate Reader (Bio-Rad, Hercules, CA, USA).

ABCB1 = ABCB1 expression by Western blot and qRT-PCR; format: cell-based, human; conditions: HepG2/Adr cells, lapatinib for 24, 48 or 72 h
Description: After being incubated in blocking solution containing 5% non-fat milk in TBST buffer (10 mM Tris-HCL (pH 8.0), 150 mM NaCl, and 0.1% Tween 20) for 2 h at room temperature, membranes were incubated with primary antibody ABCB1 (1:1000 dilution, Santa Cruz Biotechnology) and GAPDH (1:5000 dilution, Kangcheng Biotechnology). The membranes were then incubated for 2 h with HRP-conjugated secondary antibody at 1:5000 dilution. Immunoreactive bands were visualized by the enhanced Phototope TM-HRP Detection Kit (Cell Signaling, USA) and exposed to Kodak medical X-ray processor (Carestream Health, USA). Protein expression was quantified by Scion Image software (Scion Co, USA).
Total cellular RNA was isolated by Trizol Reagent (Gibco BRL, USA) RNA extraction kit following manufacture instruction. cDNA were prepared from the sensitive HepG2 and the resistant HepG2/Adr cells. Reverse transcription was done with reverse transcriptase (Promega Corp., Madison, WI). Oligonucleotides primers for ABCB1 and GAPDH were synthesized commercially (Invitrogen Co., China). They included ABCB1 (homo sapiens), sense primer, 5′-[sequence]-3′, antisense primer, 5′-[sequence]-3′; Abcb1 (mus), sense primer, 5′-[sequence]-3′, antisense primer, 5′-[sequence]-3′; GAPDH, sense primer, 5′-[sequence]-3′, antisense primer, 5′-[sequence]-3′. […] Relative quantification of ABCB1 was performed using the 2^−ΔΔCt method [46]. […]

HepG2 cells [3] = test: Doxorubicin and rhodamine 123 accumulation by flow cytometry in parental cells; format: cell-based, human; conditions: in the presence of lapatinib
Description: The human hepatocellular carcinoma cell line HepG2 was obtained from American Type Culture Collection (ATCC). The Dox-selected derivative ABCB1-overexpressing HepG2/Adr subline was established as previous study. All cells were grown in DMEM supplemented with 10% fetal bovine serum, 100 units/mL streptomycin sulfate and 100 units/mL penicillin G sulfate, and maintained at 37°C in the presence of 5% CO2. HepG2/Adr cells were cultured with 1.2 μM Dox to maintain its ABCB1-overexpressing properties. All cells were grown in drug-free culture medium for more than 2 weeks before assay.
The accumulation of doxorubicin or rhodamine 123 in HepG2 and HepG2/Adr cells was measured as previously described. Verapamil, a known ABCB1 inhibitor, was used as a positive control.

[4] = target: T1, ABCB1-overexpressing HepG2/Adr cells (Homo sapiens, UniProt P08183); test: MTT cytotoxicity of doxorubicin with lapatinib, resistant cells; format: cell-based; conditions: lapatinib added 1 h before doxorubicin
T1 construct: The Dox-selected derivative ABCB1-overexpressing HepG2/Adr subline was established as previous study; endogenous in cells; host or cells: HepG2/Adr (doxorubicin-selected subline of human HepG2)
Description: as §1

Swiss mice liver tissues = test: Ex vivo doxorubicin accumulation in Swiss mice liver tissues; conditions: 2.5 μM lapatinib, 10 μM doxorubicin
Description: The fresh normal liver tissue adjacent to the hepatocellular carcinoma retrieved from Sun Yat-sen university cancer center was used for the drug accumulation assay ex vivo. Informed consent was obtained from the patients before tissue collection. The work was approved by the ethics review committee at Sun Yat-sen University (Guangzhou, China). Liver tissues of 50-100 mg were cut into small pieces (1mm^3) and cultured in DMEM containing 15% fetal bovine serum at 37°C. […] Subsequently, the tissues were then collected, centrifuged and washed twice with cold PBS containing 10 μM verapamil. Then, liver tissues were resuspended in 1 ml/100 mg tissues lysis solution which contained 0.3 mol/l HCl and 60% ethanol (1:1) and was homogenized at 4°C and then centrifuged at 12 000 × g [43]. The supernatant was removed and its fluorescence signal was measured by a spectrofluorometer at λex 470 nm and λem 590 nm. Simultaneously, the standard curve of doxorubicin was made with the same condition. The doxorubicin accumulation in liver tissues (μg/g) was calculated according to the fluorescence value using a standard curve.

[5] = human pharmacokinetic studies ref 35, 36; cited from earlier work

T1 sequence (P08183 whole entry): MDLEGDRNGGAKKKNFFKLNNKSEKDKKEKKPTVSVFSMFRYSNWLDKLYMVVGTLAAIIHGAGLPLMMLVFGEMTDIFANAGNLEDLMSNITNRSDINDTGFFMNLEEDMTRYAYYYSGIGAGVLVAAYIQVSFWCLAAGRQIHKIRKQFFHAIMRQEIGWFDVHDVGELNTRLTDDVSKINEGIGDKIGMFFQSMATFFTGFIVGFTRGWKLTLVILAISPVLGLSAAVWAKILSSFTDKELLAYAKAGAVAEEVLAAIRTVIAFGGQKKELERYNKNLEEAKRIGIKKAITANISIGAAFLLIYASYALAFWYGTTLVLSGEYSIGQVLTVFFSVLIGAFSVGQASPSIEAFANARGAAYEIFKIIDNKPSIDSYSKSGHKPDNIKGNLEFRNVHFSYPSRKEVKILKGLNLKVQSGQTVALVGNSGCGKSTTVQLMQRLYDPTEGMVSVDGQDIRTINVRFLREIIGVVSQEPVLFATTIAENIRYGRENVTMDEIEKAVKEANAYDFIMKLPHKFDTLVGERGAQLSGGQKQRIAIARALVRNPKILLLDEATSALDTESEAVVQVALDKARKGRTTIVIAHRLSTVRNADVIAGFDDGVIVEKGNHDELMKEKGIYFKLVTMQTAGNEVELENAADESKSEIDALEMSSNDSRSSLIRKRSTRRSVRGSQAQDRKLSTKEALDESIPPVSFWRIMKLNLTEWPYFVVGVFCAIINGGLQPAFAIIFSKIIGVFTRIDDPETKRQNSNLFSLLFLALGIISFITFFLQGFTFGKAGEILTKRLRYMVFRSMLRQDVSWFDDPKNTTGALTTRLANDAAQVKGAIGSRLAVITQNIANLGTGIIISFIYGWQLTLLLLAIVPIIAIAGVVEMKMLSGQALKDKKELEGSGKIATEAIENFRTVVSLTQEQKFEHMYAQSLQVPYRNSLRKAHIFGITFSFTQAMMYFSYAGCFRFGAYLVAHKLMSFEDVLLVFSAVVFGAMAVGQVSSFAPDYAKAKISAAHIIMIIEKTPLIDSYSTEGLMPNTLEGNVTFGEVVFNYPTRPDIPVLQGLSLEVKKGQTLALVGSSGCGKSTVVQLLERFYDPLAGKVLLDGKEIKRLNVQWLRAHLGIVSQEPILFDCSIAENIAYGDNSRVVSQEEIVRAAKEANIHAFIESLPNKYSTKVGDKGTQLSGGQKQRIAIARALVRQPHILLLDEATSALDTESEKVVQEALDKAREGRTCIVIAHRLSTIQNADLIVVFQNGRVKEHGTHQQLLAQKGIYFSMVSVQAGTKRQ

Row | Compound | AUC(0-inf) (in vivo; in vivo, 10 mg/kg) [ng·h/mL] | AUC(0-t) (in vivo; in vivo, 10 mg/kg) [ng·h/mL] | Vd (in vivo; in vivo, 10 mg/kg) [L] | MRT (in vivo; plasma, 10 mg/kg) [h] | half-life (in vivo; plasma, 10 mg/kg) [h] | liver histology (HE staining) (liver) | patients who showed grade 1 abnormal hepatic function [1] [patients] | MRT (in vivo; in vivo, 18 mg/kg) [h] | Vd (in vivo; in vivo, 18 mg/kg) [L] | clearance (in vivo; in vivo, 18 mg/kg) [mL/min] | half-life (in vivo; in vivo, 18 mg/kg) [h] | effect on cytotoxicity of doxorubicin (HepG2 cells [2]) | ABCB1 RNA and protein expressions (ABCB1) | intracellular accumulation of doxorubicin (HepG2 cells [3]) | intracellular accumulation of rhodamine 123 (HepG2 cells [3]) | effect on cytotoxicity of doxorubicin [4] | increase of fluorescent index of doxorubicin (Swiss mice liver tissues) [fold] | half-life [5] | highest peak plasma lapatinib concentration [5]
1 | COc1cccc2c1C(=O)c1c(O)c3c(c(O)c1C2=O)C[C@@](O)(C(=O)CO)C[C@@H]3O[C@H]1C[C@H](N)[C@H](O)[C@H](C)O1 [Doxorubicin] | 2960 ± 878 | 2920 ± 841 | 0.00339 ± 0.00121 | 7.51 ± 1.08 | 5.2 ± 0.75 | mild central venous hyperemia, Hepatic cord disorder and vacuolar degeneration | – | – | – | – | – | – | – | – | – | – | – | – | –
2 | CC(=O)O[C@H]1C(=O)[C@@]2(C)[C@H]([C@H](OC(=O)c3ccccc3)[C@]3(O)C[C@H](OC(=O)[C@H](O)[C@@H](NC(=O)c4ccccc4)c4ccccc4)C(C)=C1C3(C)C)[C@]1(OC(C)=O)CO[C@@H]1C[C@@H]2O [Paclitaxel, paclitaxel] | – | – | – | – | – | mild liver damage | 2 | 1.42 ± 0.08 | 0.015 ± 0.00128 | 0.139 | 1.24 ± 0.06 | – | – | – | – | – | – | – | –
3 | CS(=O)(=O)CCNCc1ccc(-c2ccc3ncnc(Nc4ccc(OCc5cccc(F)c5)c(Cl)c4)c3c2)o1 [Lapatinib] | – | – | – | – | – | – | – | – | – | – | – | not in the parental HepG2 cells | not significantly altered | not altered | not altered | enhance the cytotoxicity effect of doxorubicin in HepG2/Adr cells in a concentration-dependent manner | 2.46 | approximately 17 h | roughly 3 μM
